How the values were obtained:
[1] = Determination of pH stability: Ganz whiteness of bleached cotton padded with the stored solutions; conditions: liquor pick-up 65%
Experimental: (§1) The sensitivity of the test compounds (102)-(104) of the invention and of the commercial compound (103) to acidic pH values is evaluated in a bath and on the cotton fabric.
(§2) A solution containing 0.8 g/l of the test compound (as active ingredient) in drinking water (approximately 11° German hardness) is prepared and separate samples of the solution are adjusted to different pH values and stored in the dark at 25° C. The appearance of each sample is assessed immediately and also after 1, 2 and 4 hours storage.
Following the 4 hour appearance assessment, separate samples of bleached cotton are padded with the respective solutions (liquor pick-up 65%). The fabric samples are dried at 70° C. for 20 minutes and the whiteness values determined according to the method of Ganz.

[2] = Determination of pH stability: appearance of 0.8 g/l solution at different pH values on storage; assay type: physicochemical; conditions: 0.8 g/l in drinking water, dark, 25° C.
Experimental: as §1, §2

[3] = Determination of fibre affinity: Ganz whiteness of bleached cotton after exhaust treatment at 95° C.; conditions: for Whiteness Value: Ganz whiteness, 0.2% whitener on fibre weight, exhaust method, liquor ratio 1:40, up to 95° C., measure of affinity to cotton
Experimental: Various bleached cotton swatches are treated by the exhaust method in an aqueous bath having the following composition: • 0.2% of test fluorescent whitener (100% active substance), based on the weight of the fibre, • 0.5 ml/l Ultravon EL™, • 20 ml/l 3% aqueous sodium hydroxide solutions, • 2 ml/l 10% aqueous sodium silicate solution and • 3 ml/l 35% aqueous hydrogen peroxide solution.
The fluorescent whiteners used were compounds (102)-(104) of the present invention and a commercial product having the formula [drawing 11]
The treatment is conducted at a liquor ratio of 1:40 for 30 minutes at from 25 to 95° C., then for a further 60 minutes at 95° C. and, finally, cooled to 30° C. The swatches are removed from the treatment bath, rinsed and dried at 60° C.
Due to the high application temperature of 95° C., the tested compounds must have high affinity to cotton to provide high whiteness levels. Consequently, the whiteness values are a suitable measure of affinity, i.e. high whiteness corresponds to high affinity.
Whiteness was measured according to the method of Ganz, which is described in detail in the Ciba-Geigy Review, 1973/1 and also in the article “Whiteness Measurement”, ISCC Conference on Fluorescence and the Colorimetry of Fluorescent Materials, Williamsburg, February 1972, published in the Journal of Color and Appearance, 1, No. 5 (1972).

[4] = cotton padded with pH 3 solution after 4 hours storage
[5] = cotton padded with pH 4 solution after 4 hours storage
[6] = cotton padded with pH 5 solution after 4 hours storage
[7] = cotton padded with pH 6 solution after 4 hours storage
[8] = cotton padded with pH 7 solution after 4 hours storage

CC(O)CN(CC(C)O)c1nc(Nc2ccc(S(=O)(=O)CCO)cc2)nc(Nc2ccc(/C=C/c3ccc(Nc4nc(Nc5ccc(S(=O)(=O)CCO)cc5)nc(N(CC(C)O)CC(C)O)n4)cc3S(=O)(=O)[O-])c(S(=O)(=O)[O-])c2)n1.[Na+].[Na+] (stereo not drawn) [(102)]
clear: Appearance of solution ([2]; 1 hour, pH 4) | Appearance of solution ([2]; 1 hour, pH 5) | Appearance of solution ([2]; 1 hour, pH 6) | Appearance of solution ([2]; 1 hour, pH 7) | Appearance of solution ([2]; 2 hours, pH 4) | Appearance of solution ([2]; 2 hours, pH 5) | Appearance of solution ([2]; 2 hours, pH 6) | Appearance of solution ([2]; 2 hours, pH 7) | Appearance of solution ([2]; 4 hours, pH 4) | Appearance of solution ([2]; 4 hours, pH 5) | Appearance of solution ([2]; 4 hours, pH 6) | Appearance of solution ([2]; 4 hours, pH 7) | Appearance of solution ([2]; Immediate, pH 4) | Appearance of solution ([2]; Immediate, pH 5) | Appearance of solution ([2]; Immediate, pH 6) | Appearance of solution ([2]; Immediate, pH 7)
171: Whiteness [1, 4]
193: Whiteness [1, 7] | Whiteness [1, 8]
194: Whiteness [1, 6]
192: Whiteness [1, 5]
high affinity to the fibre: Affinity to the fibre (judged from whiteness value) ([3]; whiteness only slightly lower than that of the conventional commercial FWA)
234: Whiteness Value [3]

O=S(=O)([O-])c1cc(Nc2nc(Nc3ccc(S(=O)(=O)CCO)cc3)nc(N(CCO)CCO)n2)ccc1/C=C/c1ccc(Nc2nc(Nc3ccc(S(=O)(=O)CCO)cc3)nc(N(CCO)CCO)n2)cc1S(=O)(=O)[O-].[Na+].[Na+] [(103)]
53: Whiteness [1, 4]
224: Whiteness Value [3]
cloudy: Appearance of solution ([2]; 1 hour, pH 3) | Appearance of solution ([2]; 1 hour, pH 4) | Appearance of solution ([2]; 2 hours, pH 3) | Appearance of solution ([2]; 2 hours, pH 4) | Appearance of solution ([2]; 4 hours, pH 3) | Appearance of solution ([2]; 4 hours, pH 4) | Appearance of solution ([2]; Immediate, pH 3)
clear: Appearance of solution ([2]; 1 hour, pH 5) | Appearance of solution ([2]; 1 hour, pH 6) | Appearance of solution ([2]; 1 hour, pH 7) | Appearance of solution ([2]; 2 hours, pH 5) | Appearance of solution ([2]; 2 hours, pH 6) | Appearance of solution ([2]; 2 hours, pH 7) | Appearance of solution ([2]; 4 hours, pH 5) | Appearance of solution ([2]; 4 hours, pH 6) | Appearance of solution ([2]; 4 hours, pH 7) | Appearance of solution ([2]; Immediate, pH 5) | Appearance of solution ([2]; Immediate, pH 6) | Appearance of solution ([2]; Immediate, pH 7)
160: Whiteness [1, 6]
184: Whiteness [1, 7]
186: Whiteness [1, 8]
115: Whiteness [1, 5]
